Assay results reported in PMC7377239, “Cardiovascular Effects of Polychlorinated Biphenyls and Their Major Metabolites” (Environmental Health Perspectives, 2020).
Read-outs that look alike come from different tables or passages of the source.

Tested on: iCell endothelial cells (human iPSC-derived ECs)
Test: Tube formation (tubulogenesis) assay in iCell endothelial cells, 18 h
Assay type: cell-based
Conditions: Homo sapiens, Endothelial cell; for activity at 0.1 µM: 0.10 µM
Outline: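 iCell ECs (passages 1–5) seeded 7,500 cells/well on reduced-growth-factor Geltrex in starvation medium, exposed overnight at 37°C to compounds in triplicate concentration–response (0.5% DMSO vehicle). Calcein AM staining, 4× imaging, angiogenesis image analysis; readouts normalized to vehicle, four-parameter logistic fit, POD at 1 SD of vehicle; 100 μM assigned NOAEL if no response.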

[1] = iPSC-EC, 0.00 µM = 100.00, read-out: endo.mtl.18hr
[2] = iPSC-EC, 0.00 µM = 100.00, read-out: endo.tlps.18hr
[3] = iPSC-EC, 0.00 µM = 100.00, read-out: endo.tta.18hr
[4] = iPSC-EC, 0.00 µM = 100.00, read-out: endo.ttl.18hr
[5] = endothelial cells (endo), tube formation mtl, 18 hr, read-out: POD endo.mtl.18hr
[6] = endothelial cells (endo), tube formation tlps, 18 hr, read-out: POD endo.tlps.18hr
[7] = endothelial cells (endo), tube formation tta, 18 hr, read-out: POD endo.tta.18hr
[8] = endothelial cells (endo), tube formation ttl, 18 hr, read-out: POD endo.ttl.18hr
[9] = iPSC-EC tube formation, 18 hr, 0.00 µM control = 100.00, read-out: endo.mtl.18hr
[10] = iPSC-EC tube formation, 18 hr, 0.00 µM control = 100.00, read-out: endo.tlps.18hr
[11] = iPSC-EC tube formation, 18 hr, 0.00 µM control = 100.00, read-out: endo.tta.18hr
[12] = iPSC-EC tube formation, 18 hr, 0.00 µM control = 100.00, read-out: endo.ttl.18hr

SMILES: Clc1ccc(Cl)c(-c2c(Cl)ccc(Cl)c2Cl)c1 [PCB95]
- activity at 0.01 µM [1]: 111%
- activity at 0.01 µM [2]: 84.5%
- activity at 0.01 µM [3]: 111%
- activity at 0.01 µM [4]: 116%
- activity at 0.1 µM [1]: 103%
- activity at 0.1 µM [2]: 85.8%
- activity at 0.1 µM [3]: 99%
- activity at 0.1 µM [4]: 106%
- activity at 1 µM [1]: 108%
- activity at 1 µM [2]: 115%
- activity at 1 µM [3]: 97.2%
- activity at 1 µM [4]: 104%
- activity at 10 µM [1]: 109%
- activity at 10 µM [2]: 119%
- activity at 10 µM [3]: 113%
- activity at 10 µM [4]: 123%
- activity at 100 µM [1]: 47%
- activity at 100 µM [2]: 16%
- activity at 100 µM [3]: 8.76%
- activity at 100 µM [4]: 11%
- minimal effective concentration (iPSC-EC, 100.00 = highest concentration tested, read-out: endo.mtl.18hr POD): 48.6 µM
- minimal effective concentration (iPSC-EC, 100.00 = highest concentration tested, read-out: endo.tlps.18hr POD): 53.9 µM
- minimal effective concentration (iPSC-EC, 100.00 = highest concentration tested, read-out: endo.tta.18hr POD): 48.7 µM
- minimal effective concentration (iPSC-EC, 100.00 = highest concentration tested, read-out: endo.ttl.18hr POD): 55.7 µM

SMILES: Oc1ccccc1-c1ccc(Cl)cc1 [2'-OH-PCB 3]
- minimal effective concentration [5]: 13.4 µM
- minimal effective concentration [6]: 9.27 µM
- minimal effective concentration [7]: 29.9 µM
- minimal effective concentration [8]: 23.1 µM

SMILES: Oc1ccc(-c2ccc(Cl)cc2)cc1 [4'-OH PCB3]
- activity at 0.01 µM [9]: 87.5%
- activity at 0.01 µM [10]: 80.1%
- activity at 0.01 µM [11]: 97.5%
- activity at 0.01 µM [12]: 93.3%
- activity at 0.1 µM [9]: 89.4%
- activity at 0.1 µM [10]: 84.6%
- activity at 0.1 µM [11]: 89.9%
- activity at 0.1 µM [12]: 86.6%
- activity at 1 µM [9]: 90.3%
- activity at 1 µM [10]: 73.5%
- activity at 1 µM [11]: 82.7%
- activity at 1 µM [12]: 81.3%
- activity at 10 µM [9]: 55.5%
- activity at 10 µM [10]: 31.4%
- activity at 10 µM [11]: 35.4%
- activity at 10 µM [12]: 35%
- activity at 100 µM [9]: 49.2%
- activity at 100 µM [10]: 11.3%
- activity at 100 µM [11]: 0.34%
- activity at 100 µM [12]: 0.48%
- minimal effective concentration (iPSC-EC tube formation, 18 hr, top concentration 100.00 µM, read-out: endo.mtl.18hr POD): 1.21 µM
- minimal effective concentration (iPSC-EC tube formation, 18 hr, top concentration 100.00 µM, read-out: endo.tlps.18hr POD): 0.19 µM
- minimal effective concentration (iPSC-EC tube formation, 18 hr, top concentration 100.00 µM, read-out: endo.tta.18hr POD): 1.16 µM
- minimal effective concentration (iPSC-EC tube formation, 18 hr, top concentration 100.00 µM, read-out: endo.ttl.18hr POD): 1.12 µM

SMILES: Oc1ccc(-c2ccc(Cl)cc2)cc1 [4'-OH-PCB 3]
- minimal effective concentration [5]: 1.21 µM
- minimal effective concentration [6]: 0.19 µM
- minimal effective concentration [7]: 1.16 µM
- minimal effective concentration [8]: 1.12 µM
